Columns and labels:
Assay type in all cases: physicochemical
[1] = Z-spectrum / NMR resonances of the exchangeable OH protons of NMR-distinguishable isomers in solution
Excerpt: (§1) CEST MR contrast enhancement have been determined on images acquired at 7 T on a Bruker Avance 300 spectrometer equipped with a Micro2.5 microimaging probe. A typical RARE spin-echo sequence (rare factor 64) with an echo time of 3.3 ms and a TR value of 5 s were used. An acquisition matrix of 64×64 with a square FOV of 10 mm was used. The whole sequence was preceded by a saturation scheme consisting of a continuous wave pulse 2 s long with a RF intensity of 24, 12, 6 μT. The Z-spectra were successively analyzed in order to determine the ratiometric value by using a software compiled in MATLAB platform operating, broadly, as disclosed in Development and validation of a smoothing-splines-based correction method for improving the analysis of CEST-MR images, Stancanello J Terreno E, Delli Castelli D, Cabella C, Uggeri F 1, Aime S.; CONTRAST MEDIA & MOLECULAR IMAGING Volume: 3, Issue: 4, Pages: 136-149, 2008; and in Methods for an improved detection of the MRI-CEST effect. Terreno E, Stancanello 3, Longo D, Delli Castelli D, Milone L, Sanders H M H F, Kok M B, Uggeri F, Aime S; CONTRAST MEDIA & MOLECULAR IMAGING; Volume: 4; Issue: 5; Pages: 237-247; 2009 that are all herein included by reference. The total paramagnetic concentration of the solution was determined through the measurement of magnetic susceptibility of the solution on a Bruker Avance 600 spectrometer (12T).

[2] = In vitro responsiveness towards pH (CEST MRI of phantom, ratiometric ST); conditions: in vitro solutions buffered at different pH
Excerpt: as §1, with “[…]. […]” for “(12T).”

[3] = In vitro responsive properties towards temperature (Z-spectra); conditions: for resonance frequency of hydroxylic protons, less shifted stereoisomer / resonance frequency of hydroxylic protons, more shifted stereoisomer: 24 mM, pH 7.31
Protocol: A solution of Yb(III)HPDO3A (24 mM) having pH 7.31 was used for test.
The test was performed with a phantom containing solution of YbHPDO3A-tetramer in serum having different concentration, ranging from 0.26 to 8.4 mM., pH 7.4 and 298K. The dependence of the chemical shifts of the OH mobile protons (of the tetrameric complex stereoisomers) on the Temperature was tested by operating as formerly described for the monomeric compound.

chemical shift of OH proton, first diastereoisomer (from water) ([1]; pH=2 and 37° C.) [ppm]	chemical shift of OH proton, second diastereoisomer ([1]; pH=2 and 37° C.) [ppm]	chemical shift of hydroxyl group, less shifted NMR-distinguishable diastereoisomer ([1]; 20° C.) [ppm]	chemical shift of hydroxyl group, more shifted NMR-distinguishable diastereoisomer ([1]; 20° C.) [ppm]	responsiveness of the saturation transfer towards pH (in words) [2]	resonance frequency of hydroxylic protons, less shifted stereoisomer ([3]; 20° C.) [ppm]	resonance frequency of hydroxylic protons, more shifted stereoisomer ([3]; 20° C.) [ppm]	resonance frequency of hydroxylic protons, less shifted stereoisomer ([3]; 37° C.) [ppm]	resonance frequency of hydroxylic protons, more shifted stereoisomer ([3]; 37° C.) [ppm]	Compound	sensitivity of the OH chemical shift to temperature (in words) [3]
20.5	16.7								CC(O)CN1CCN(CC(=O)[O-])CCN(CC(=O)[O-])CCN(CC(=O)[O-])CC1.[Eu+3] (centres unmarked) [EuHPDO3A]	
		72	99	is different	72	99	64.3	88	CC(O)CN1CCN(CC(=O)[O-])CCN(CC(=O)[O-])CCN(CC(=O)[O-])CC1.[Yb+3] (centres unmarked) [YbHPDO3A]	very sensitive to the temperature
									1,23-bis[4,7,10-triacetate[1,4,7,10-tetraazacyclododecan-(1)-yl]]-12,12′-bis[11[4,7,10-triacetate)-[1,4,7,10-tetraazacyclododecan-(1)-yl]]2-aza-3-oxo-5,8-dioxy-10-hydroxyundecanyl]2,22-dihydroxy-4,7,17,20-tetroxy-9,15-dioxo-10,14-diazatricosane tetra Ytterbium Complex (1:4) [YbHPDO3A-tetramer]	greatly increased

— patent publication US10232060B2, “CEST systems exhibiting a concentration independent responsiveness” (BRACCO IMAGING S.P.A., priority 2010, dated 2019)
